# Measurements published in ChEMBL document CHEMBL1201862, “PubChem BioAssay data set” (2004).
# Calls of active or inactive are those of the source.
# What was measured:
# [1] = target: T1, Corticotropin-releasing factor receptor 2/Corticotropin-releasing factor-binding protein (Homo sapiens, UniProt P24387+Q13324); experiment: Dose Response confirmation of uHTS hits for small molecule antagonists of the CRF-binding protein and CRF-R2 receptor complex.; assay type: functional; conditions: read-out: IC50_Mean
# T1 sequence (Q13324 whole entry): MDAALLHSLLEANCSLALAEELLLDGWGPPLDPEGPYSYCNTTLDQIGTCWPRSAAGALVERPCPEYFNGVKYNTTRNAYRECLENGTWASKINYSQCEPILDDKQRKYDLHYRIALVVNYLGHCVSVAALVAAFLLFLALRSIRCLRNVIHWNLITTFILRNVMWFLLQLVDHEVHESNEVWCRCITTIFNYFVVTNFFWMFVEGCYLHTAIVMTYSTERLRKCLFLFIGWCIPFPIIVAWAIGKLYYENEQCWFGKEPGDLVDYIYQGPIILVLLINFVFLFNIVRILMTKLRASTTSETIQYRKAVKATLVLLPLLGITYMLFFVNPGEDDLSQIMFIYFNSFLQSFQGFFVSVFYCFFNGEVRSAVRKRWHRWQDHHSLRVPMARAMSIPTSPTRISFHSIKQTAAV
# T1 sequence (P24387 whole entry): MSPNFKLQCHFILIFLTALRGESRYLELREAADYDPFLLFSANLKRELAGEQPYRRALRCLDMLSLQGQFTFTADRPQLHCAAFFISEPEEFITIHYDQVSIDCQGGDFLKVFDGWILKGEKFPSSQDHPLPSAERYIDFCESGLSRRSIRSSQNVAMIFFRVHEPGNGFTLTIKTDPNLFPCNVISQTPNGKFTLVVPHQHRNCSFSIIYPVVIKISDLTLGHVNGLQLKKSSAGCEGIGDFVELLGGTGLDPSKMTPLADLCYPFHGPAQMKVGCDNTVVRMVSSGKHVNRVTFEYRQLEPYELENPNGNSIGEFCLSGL
# [2] = target: T1, Corticotropin-releasing factor receptor 2/Corticotropin-releasing factor-binding protein; experiment: activators of CRF receptor 2 with binding protein – uHTS hits, confirmation (AID 602473); assay type: functional; conditions: read-out: EC50_Mean
# Protein skinhead-1 = target: T2, Protein skinhead-1 (Caenorhabditis elegans, UniProt P34707); assay type: functional
# T2 sequence (P34707 whole entry): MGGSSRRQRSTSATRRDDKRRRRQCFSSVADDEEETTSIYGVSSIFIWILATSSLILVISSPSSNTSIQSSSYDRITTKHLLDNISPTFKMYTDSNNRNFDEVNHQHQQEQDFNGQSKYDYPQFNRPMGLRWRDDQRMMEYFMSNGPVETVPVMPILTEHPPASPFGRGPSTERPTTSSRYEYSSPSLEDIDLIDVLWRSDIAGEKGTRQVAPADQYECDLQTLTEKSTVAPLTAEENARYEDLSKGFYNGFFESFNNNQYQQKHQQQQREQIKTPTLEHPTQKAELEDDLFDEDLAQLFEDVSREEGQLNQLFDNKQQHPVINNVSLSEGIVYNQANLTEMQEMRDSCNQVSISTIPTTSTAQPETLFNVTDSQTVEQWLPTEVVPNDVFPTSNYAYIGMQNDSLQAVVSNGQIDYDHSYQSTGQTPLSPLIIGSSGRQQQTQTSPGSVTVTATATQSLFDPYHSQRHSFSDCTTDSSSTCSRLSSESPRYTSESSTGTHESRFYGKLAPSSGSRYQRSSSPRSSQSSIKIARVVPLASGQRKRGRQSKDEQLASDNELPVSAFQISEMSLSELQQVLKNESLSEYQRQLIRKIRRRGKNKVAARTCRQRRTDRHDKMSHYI
# [3] = target: T3, Heat shock factor protein 1 (Mus musculus, UniProt P38532); experiment: enhancement of HSF1-driven luciferase signal – cell-based, NIH3T3, luminescence, dose retest, confirmation (AID 435004); assay type: functional;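 further: stress induced by proteasome inhibitor MG132 added 30 min after compound; luciferase reporter driven by HSF1 response element in NIH3T3 cells; actives raise luminescence as potentiators of the MG132 stress response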
# T3 sequence (P38532 whole entry): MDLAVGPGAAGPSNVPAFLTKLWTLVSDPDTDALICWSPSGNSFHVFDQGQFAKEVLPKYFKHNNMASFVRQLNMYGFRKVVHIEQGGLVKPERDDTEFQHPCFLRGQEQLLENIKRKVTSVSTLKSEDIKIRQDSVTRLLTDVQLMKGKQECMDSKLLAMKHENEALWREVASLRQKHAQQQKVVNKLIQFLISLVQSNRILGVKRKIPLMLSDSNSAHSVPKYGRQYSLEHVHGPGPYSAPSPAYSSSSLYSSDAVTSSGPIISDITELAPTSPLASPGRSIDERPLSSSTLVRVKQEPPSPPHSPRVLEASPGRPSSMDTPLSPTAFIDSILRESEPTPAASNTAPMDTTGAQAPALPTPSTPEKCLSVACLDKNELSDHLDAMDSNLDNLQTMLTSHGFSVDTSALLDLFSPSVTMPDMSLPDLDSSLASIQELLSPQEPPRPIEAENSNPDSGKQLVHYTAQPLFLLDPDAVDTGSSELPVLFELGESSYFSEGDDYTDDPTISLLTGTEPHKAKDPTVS
# Cytochrome P450 1A2 = target: T4, Cytochrome P450 1A2 (Homo sapiens, UniProt P05177);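 further: PubChem cytochrome P450 panel assay, CYP1A2 panel member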
# T4 sequence (P05177 whole entry): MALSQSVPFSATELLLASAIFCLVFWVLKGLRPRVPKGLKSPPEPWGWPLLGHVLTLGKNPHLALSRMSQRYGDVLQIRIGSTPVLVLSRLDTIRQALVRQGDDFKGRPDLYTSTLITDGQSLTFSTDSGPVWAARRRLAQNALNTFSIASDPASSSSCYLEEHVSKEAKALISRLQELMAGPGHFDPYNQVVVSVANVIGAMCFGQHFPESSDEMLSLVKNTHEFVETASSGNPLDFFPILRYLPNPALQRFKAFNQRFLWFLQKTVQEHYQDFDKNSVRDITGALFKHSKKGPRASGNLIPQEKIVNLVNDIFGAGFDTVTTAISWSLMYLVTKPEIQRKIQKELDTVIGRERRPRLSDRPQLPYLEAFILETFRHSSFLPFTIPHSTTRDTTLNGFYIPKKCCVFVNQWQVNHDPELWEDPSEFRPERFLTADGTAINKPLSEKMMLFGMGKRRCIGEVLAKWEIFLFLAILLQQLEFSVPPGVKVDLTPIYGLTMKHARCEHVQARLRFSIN
# Cytochrome P450 3A4 = Cytochrome P450 3A4 (Homo sapiens, UniProt P08684);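 further: CYP3A4 tested as one member of a cytochrome P450 panel screen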
# Cytochrome P450 2C9 = Cytochrome P450 2C9 (Homo sapiens, UniProt P11712)
# [4] = Luminescence Cell-Based Dose Response HTS to Identify Activators of Luciferase Translation or Activity in H4 […] Cells. [Related pubchem assays: 1829 (Project Summary), 1814 (Primary HTS)]; assay type: functional
# H4 = experiment: Luminescence Cell-Based Dose Response HTS to Identify Activators of 5'UTR Stem-Loop Driven Prion Protein mRNA Translation in H4 Neuroglioblastoma Cells. [Related pubchem assays: 1829 (Project Summary), 1814 (Primary HTS)]; assay type: functional; conditions: Homo sapiens
# [5] = Trypanosoma cruzi growth suppression in host cells – NIH3T3 host cells, beta-gal luminescence, confirmation (AID 2044); assay type: functional, cell-based;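 further: intracellular parasites grown in NIH/3T3 mouse fibroblasts as host cells; luminescent beta-galactosidase reporter signal from transgenic T. cruzi replicating inside host cells; inhibitors lower the luminescence signal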
# [6] = NIH3T3 cell viability loss – ATP luminescence, mouse fibroblasts, counter-screen, dose response (AID 2010); assay type: functional, cell-based;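 further: cells exposed to compound for about 90 hours before reading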
# Cytochrome P450 3A4, sequence (P08684 whole entry): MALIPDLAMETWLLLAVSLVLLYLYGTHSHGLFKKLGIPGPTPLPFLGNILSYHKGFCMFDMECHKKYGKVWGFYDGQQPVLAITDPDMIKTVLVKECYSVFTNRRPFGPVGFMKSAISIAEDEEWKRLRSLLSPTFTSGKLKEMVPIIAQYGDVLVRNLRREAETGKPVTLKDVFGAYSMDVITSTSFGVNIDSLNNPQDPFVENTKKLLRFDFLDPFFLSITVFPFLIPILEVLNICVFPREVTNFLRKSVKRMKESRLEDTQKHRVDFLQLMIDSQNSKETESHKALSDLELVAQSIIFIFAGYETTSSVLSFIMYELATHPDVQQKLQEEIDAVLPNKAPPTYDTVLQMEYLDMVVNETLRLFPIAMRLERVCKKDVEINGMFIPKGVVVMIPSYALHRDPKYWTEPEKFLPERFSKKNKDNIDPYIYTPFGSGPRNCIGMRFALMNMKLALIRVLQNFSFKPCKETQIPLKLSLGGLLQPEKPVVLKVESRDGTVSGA
# Cytochrome P450 2C9, sequence (P11712 whole entry): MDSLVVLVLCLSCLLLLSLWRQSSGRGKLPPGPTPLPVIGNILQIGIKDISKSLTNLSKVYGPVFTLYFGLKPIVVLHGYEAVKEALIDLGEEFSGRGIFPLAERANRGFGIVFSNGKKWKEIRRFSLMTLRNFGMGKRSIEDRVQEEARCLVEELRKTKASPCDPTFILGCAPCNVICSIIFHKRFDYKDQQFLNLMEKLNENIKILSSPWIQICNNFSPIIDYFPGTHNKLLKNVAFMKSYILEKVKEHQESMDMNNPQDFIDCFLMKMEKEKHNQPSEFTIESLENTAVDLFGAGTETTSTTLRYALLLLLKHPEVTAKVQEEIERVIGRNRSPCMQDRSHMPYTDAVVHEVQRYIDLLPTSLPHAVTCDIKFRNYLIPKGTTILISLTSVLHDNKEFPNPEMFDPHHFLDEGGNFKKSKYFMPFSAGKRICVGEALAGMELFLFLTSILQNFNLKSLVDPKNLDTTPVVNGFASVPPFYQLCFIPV
smiles,measurement,setting,value
CCc1nc(NCCC(C)C)c(C#N)c2c1CCCC2,IC50,[1],> 47.1 µM (inactive)
same,EC50,[2],> 53 µM (inactive)
same,IC50,Protein skinhead-1,> 100 µM (inactive)
Clc1ccc(-c2nnc(-c3ccccc3)o2)cn1,IC50,Protein skinhead-1,39.8 µM (active)
COc1ccc(/C=C/C(=O)N(C(C)C)C(C)C)cc1Br,EC50,[3],200 µM (active)
O=C1/C(=C\c2cccs2)SC(=S)N1C1CCS(=O)(=O)C1 (centres undefined),IC50,Protein skinhead-1,> 100 µM (inactive)
COc1ccc(-c2nc3cnc(N4CCNCC4)nc3n(C)c2=O)cc1,AC50,Cytochrome P450 1A2,12.6 µM (inconclusive)
same,AC50,Cytochrome P450 3A4,31.6 µM (inconclusive)
COc1cccc(-c2ccc3ncnc(N4CCNCC4)c3c2)c1,AC50,Cytochrome P450 3A4,10 µM (inconclusive)
CN(C)c1ccc(C(CNC(=O)c2ccccc2)c2c[nH]c3ccccc23)cc1 (centres undefined),EC50,[3],> 260 µM (inactive)
CC(NC(=O)/C=C/c1ccco1)c1nc2ccccc2n1Cc1cccc(Cl)c1 (centres undefined),EC50,[3],> 260 µM (inactive)
c1ccc(N2CCN(c3cnc4ccccc4n3)CC2)cc1,IC50,Protein skinhead-1,76.2 µM (inactive)
CC(=O)NCCNc1nc(-c2ccccc2Cl)nc2ccccc12,AC50,Cytochrome P450 3A4,5.01 µM (inconclusive)
CC(=O)N1CSCC1C(=O)NNS(=O)(=O)c1cccc(C(F)(F)F)c1 (centres undefined),EC50,[3],> 260 µM (inactive)
N[C@@H](CC1=CS(=O)(=O)c2ccc(Cl)cc21)C(=O)O,AC50,Cytochrome P450 1A2,0.398 µM (inconclusive)
same,AC50,Cytochrome P450 3A4,5.01 µM (inconclusive)
same,AC50,Cytochrome P450 2C9,6.31 µM (inconclusive)
Cc1ccccc1OCc1nnc2c3cnn(C)c3ncn12,EC50,[4],16.8 µM (active)
same,EC50,H4,38.8 µM (active)
CC(=O)N1CCC[C@@]2(CCN(Cc3nccs3)C2)C1,AC50,Cytochrome P450 3A4,31.6 µM (inconclusive)
COC(=O)c1[nH]c2ccccc2c1NC(=O)C(C)N1CCOCC1 (centres undefined),IC50,Protein skinhead-1,> 100 µM (inactive)
COc1ccc(Nc2oc(-c3ccc(F)cc3)nc2C#N)cc1,EC50,[4],15.1 µM (active)
same,EC50,H4,> 120 µM (not active)
CSc1ccc(S(=O)(=O)N2CCC(C(=O)Nc3ccccc3C(F)(F)F)CC2)cc1,IC50,Protein skinhead-1,> 100 µM (inactive)
CCn1cc(C(=O)OCC(=O)NCc2ccc3c(c2)OCO3)c(=O)c2ccc(C)nc21,IC50,Protein skinhead-1,> 100 µM (inactive)
Cc1cc(C)n(-c2nc3ccccc3n3cnnc23)n1,IC50,Protein skinhead-1,> 100 µM (inactive)
Fc1ccc(-c2cnn3c(-c4ccncc4)ccnc23)cc1,IC50,Protein skinhead-1,> 100 µM (inactive)
COc1cc(-c2cn(S(=O)(=O)c3cccc4nsnc34)nc2N)cc(OC)c1OC,EC50,[3],> 260 µM (inactive)
Cc1csc(NC(=O)CNS(=O)(=O)c2cccs2)n1,AC50,Cytochrome P450 3A4,17.8 µM (inconclusive)
COc1cccc(CNCc2ccc(SC)cc2)c1OC,AC50,Cytochrome P450 3A4,11.2 µM (inconclusive)
O=C(Nc1ccccc1C(=O)N1CCCC1)c1ncoc1-c1cccc(Cl)c1,EC50,[3],> 260 µM (inactive)
O=C(CN1CCN(S(=O)(=O)N2CCCCC2)CC1)Nc1cc(Cl)cc(Cl)c1,IC50,Protein skinhead-1,> 100 µM (inactive)
N#CC(c1ccccn1)(c1ncc(C(F)(F)F)cc1Cl)N1CCOCC1 (centres undefined),AC50,Cytochrome P450 3A4,35.5 µM (inconclusive)
N#C/C(=C(\O)C(F)(F)F)c1nnc2n1CCCCC2,EC50,[3],> 260 µM (inactive)
COc1cc(/C=N/NC(=O)c2ccncc2)ccc1OC(=O)c1ccc([N+](=O)[O-])cc1,AC50,Cytochrome P450 3A4,0.891 µM (inconclusive)
same,AC50,Cytochrome P450 2C9,3.55 µM (inconclusive)
CO/C(O)=C1/C(C)=NC2=C(C(=O)CC(C)(C)C2)C1c1cn(Cc2ccc(Br)cc2)nc1-c1ccccc1 (centres undefined),EC50,[3],> 260 µM (inactive)
COc1ccc(/C(C)=N/NC(=S)NCc2ccco2)cc1,EC50,[3],> 260 µM (inactive)
CCOC(=O)C1=C(Nc2ccccc2)CC(C)(O)C(C(=O)OCC)C1c1ccc(Cl)cc1 (centres undefined),IC50,Protein skinhead-1,> 100 µM (inactive)
C[C@@H](N)Cn1ccc2cc(F)c(Cl)cc21,AC50,Cytochrome P450 3A4,39.8 µM (inconclusive)
N#C/C(=C\c1ccc(Sc2ccccc2)o1)c1nc2ccccc2[nH]1,EC50,[4],0.561 µM (active)
same,EC50,H4,23 µM (active)
same,EC50,[5],1.42 µM (active)
same,EC50,[6],> 60 µM (inconclusive)
